US9683994B2, “High throughput mobility shift” (Caliper Life Sciences, Inc., priority 2002, dated 2017)

Target: Protein Kinase A (PKA) (Homo sapiens, UniProt P17612)
Assay: pulsed field mobility shift assay screening for Protein Kinase A (PKA) inhibitors
Type: biochemical
Conditions: from dose response curve (FIG. 10), 7 H9 concentrations 0.15-30.75 μM; pulsed field and standard (constant field) mobility shift assays predict same Ki; read-out: Ki value for the inhibitor
Procedure: In an exemplary embodiment, the pulsed field mobility shift assay was used for screening for Protein Kinase A (PKA) inhibitors. Samples were drawn from a 96 well plate into a microfluidic device through a capillary. The plate contained 7 different concentration samples (0.15 μM, 0.32 μM, 0.63 μM, 1.54 μM, 2.52 μM, 5.05 μM, and 30.75 μM) of H9 at randomly chosen wells. Except for a single well containing the 30.75 μM concentration of H9, two wells contained each of the other six concentrations of H9. The last column of each row of the well plate contained a marker used to indicate the end of row. In this embodiment, the marker was 1 μM of 100% converted PKA product. Once in the reaction channel of the microfluidic device, the pressure driven velocity of the sample was set at 0.028 cm/s and the applied electric field was set to 997 V/cm. […] Each sample was sipped for 30 seconds separated by a 30 second buffer sip. […] From the data in FIGS. 8 and 9, the parameter C1/C0, which is the ratio of the fluorescence measured while the electric field is on to the fluorescence measured while the field is off, was determined for each of the seven H9 concentrations. That parameter was also measured in the absence of H9 to provide a baseline value. The deviation from the baseline value ΔC/C=((C1/C0)|H9sample−(C1/C0)|buffer), was evaluated for each H9 sample. […]

Ki: 3.5 µM
Structure (SMILES): NCCNS(=O)(=O)c1cccc2cnccc12 [H9]
